In ChEMBL document CHEMBL3991601, “The target landscape of clinical kinase drugs” (Science, 2017):
The source made the active and inactive calls. On the calls: in the data inactive means no Kd found up to 30 µM.

What follows are compounds tested against Obg-like ATPase 1 (Homo sapiens, UniProt Q9NTK5).

Question: For `COCCNCc1ccc(-c2cc3nccc(Oc4ccc(NC(=S)NC(=O)Cc5ccc(F)cc5)cc4F)c3s2)nc1` [GLESATINIB], which Kd is on record?
Answer: Its Kd is > 30 µM (inactive).

Question: Which Kd does the source give for `CC(=O)Nc1cccc(-n2c(=O)n(C3CC3)c(=O)c3c(Nc4ccc(I)cc4F)n(C)c(=O)c(C)c32)c1` [TRAMETINIB] here?
Answer: The Kd was > 30 µM (inactive).

Question: For `CC[C@@H]1C(=O)N(C)c2cnc(Nc3ccc(C(=O)N[C@H]4CC[C@H](N5CCN(CC6CC6)CC5)CC4)cc3OC)nc2N1C(C)C` [VOLASERTIB], which Kd is on record?
Answer: Its Kd is > 30 µM (inactive).

Each compound was assayed against T1, Eukaryotic translation initiation factor 5B (Homo sapiens, UniProt O60841).
T1 sequence (O60841 whole entry): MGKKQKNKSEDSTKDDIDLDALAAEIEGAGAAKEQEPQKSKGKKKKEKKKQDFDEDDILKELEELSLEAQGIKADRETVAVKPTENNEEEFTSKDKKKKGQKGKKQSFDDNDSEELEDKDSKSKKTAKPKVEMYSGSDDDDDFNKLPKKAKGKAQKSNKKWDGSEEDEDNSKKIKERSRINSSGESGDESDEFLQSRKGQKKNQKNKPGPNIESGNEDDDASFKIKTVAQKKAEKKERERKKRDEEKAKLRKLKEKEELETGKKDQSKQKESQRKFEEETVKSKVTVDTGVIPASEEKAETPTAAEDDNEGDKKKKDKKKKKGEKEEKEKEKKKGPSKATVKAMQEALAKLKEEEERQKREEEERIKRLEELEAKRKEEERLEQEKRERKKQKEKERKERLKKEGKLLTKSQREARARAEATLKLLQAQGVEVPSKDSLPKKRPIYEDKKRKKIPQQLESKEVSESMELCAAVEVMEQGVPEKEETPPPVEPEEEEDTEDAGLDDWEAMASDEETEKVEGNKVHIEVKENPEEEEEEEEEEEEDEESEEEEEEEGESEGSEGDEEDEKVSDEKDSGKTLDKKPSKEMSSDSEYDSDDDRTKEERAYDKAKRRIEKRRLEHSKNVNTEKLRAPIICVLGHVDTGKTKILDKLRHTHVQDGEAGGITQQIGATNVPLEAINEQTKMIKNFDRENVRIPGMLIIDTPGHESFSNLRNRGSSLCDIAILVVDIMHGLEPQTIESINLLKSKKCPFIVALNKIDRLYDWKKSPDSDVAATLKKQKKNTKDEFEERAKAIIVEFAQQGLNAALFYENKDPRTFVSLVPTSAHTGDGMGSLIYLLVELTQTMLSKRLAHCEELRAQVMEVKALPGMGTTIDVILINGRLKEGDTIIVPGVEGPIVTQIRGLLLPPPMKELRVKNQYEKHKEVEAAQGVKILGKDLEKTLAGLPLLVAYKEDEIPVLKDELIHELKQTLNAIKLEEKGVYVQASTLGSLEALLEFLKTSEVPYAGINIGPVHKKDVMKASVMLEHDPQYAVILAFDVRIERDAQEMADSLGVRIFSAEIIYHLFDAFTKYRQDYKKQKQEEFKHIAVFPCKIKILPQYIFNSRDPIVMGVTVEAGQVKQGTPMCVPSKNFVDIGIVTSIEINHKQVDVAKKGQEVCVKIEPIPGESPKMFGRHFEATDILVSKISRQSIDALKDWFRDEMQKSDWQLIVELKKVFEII

Question: How did the Kd turn out when `COCCNCc1ccc(-c2cc3nccc(Oc4ccc(NC(=S)NC(=O)Cc5ccc(F)cc5)cc4F)c3s2)nc1` [GLESATINIB] was run?
Answer: The Kd was > 30 µM (inactive).

Question: How did the Kd turn out when `CC(=O)Nc1cccc(-n2c(=O)n(C3CC3)c(=O)c3c(Nc4ccc(I)cc4F)n(C)c(=O)c(C)c32)c1` [TRAMETINIB] was run?
Answer: The Kd was > 30 µM (inactive).

Question: For `CC[C@@H]1C(=O)N(C)c2cnc(Nc3ccc(C(=O)N[C@H]4CC[C@H](N5CCN(CC6CC6)CC5)CC4)cc3OC)nc2N1C(C)C` [VOLASERTIB], which Kd is on record?
Answer: Its Kd is > 30 µM (inactive).

Each compound was assayed against Serine/threonine-protein kinase 24 (Homo sapiens, UniProt Q9Y6E0).

Question: Which Kd does the source give for `COCCNCc1ccc(-c2cc3nccc(Oc4ccc(NC(=S)NC(=O)Cc5ccc(F)cc5)cc4F)c3s2)nc1` [GLESATINIB] here?
Answer: Its Kd is > 30 µM (inactive).

Question: For `CC(=O)Nc1cccc(-n2c(=O)n(C3CC3)c(=O)c3c(Nc4ccc(I)cc4F)n(C)c(=O)c(C)c32)c1` [TRAMETINIB], which Kd is on record?
Answer: The Kd was > 30 µM (inactive).

Question: `CC[C@@H]1C(=O)N(C)c2cnc(Nc3ccc(C(=O)N[C@H]4CC[C@H](N5CCN(CC6CC6)CC5)CC4)cc3OC)nc2N1C(C)C` [VOLASERTIB] was tested. Which Kd did it give?
Answer: The Kd was > 30 µM (inactive).

The compounds below were run against T2, ATP-dependent RNA helicase DHX30 (Homo sapiens, UniProt Q7L2E3).
T2 sequence (Q7L2E3 whole entry): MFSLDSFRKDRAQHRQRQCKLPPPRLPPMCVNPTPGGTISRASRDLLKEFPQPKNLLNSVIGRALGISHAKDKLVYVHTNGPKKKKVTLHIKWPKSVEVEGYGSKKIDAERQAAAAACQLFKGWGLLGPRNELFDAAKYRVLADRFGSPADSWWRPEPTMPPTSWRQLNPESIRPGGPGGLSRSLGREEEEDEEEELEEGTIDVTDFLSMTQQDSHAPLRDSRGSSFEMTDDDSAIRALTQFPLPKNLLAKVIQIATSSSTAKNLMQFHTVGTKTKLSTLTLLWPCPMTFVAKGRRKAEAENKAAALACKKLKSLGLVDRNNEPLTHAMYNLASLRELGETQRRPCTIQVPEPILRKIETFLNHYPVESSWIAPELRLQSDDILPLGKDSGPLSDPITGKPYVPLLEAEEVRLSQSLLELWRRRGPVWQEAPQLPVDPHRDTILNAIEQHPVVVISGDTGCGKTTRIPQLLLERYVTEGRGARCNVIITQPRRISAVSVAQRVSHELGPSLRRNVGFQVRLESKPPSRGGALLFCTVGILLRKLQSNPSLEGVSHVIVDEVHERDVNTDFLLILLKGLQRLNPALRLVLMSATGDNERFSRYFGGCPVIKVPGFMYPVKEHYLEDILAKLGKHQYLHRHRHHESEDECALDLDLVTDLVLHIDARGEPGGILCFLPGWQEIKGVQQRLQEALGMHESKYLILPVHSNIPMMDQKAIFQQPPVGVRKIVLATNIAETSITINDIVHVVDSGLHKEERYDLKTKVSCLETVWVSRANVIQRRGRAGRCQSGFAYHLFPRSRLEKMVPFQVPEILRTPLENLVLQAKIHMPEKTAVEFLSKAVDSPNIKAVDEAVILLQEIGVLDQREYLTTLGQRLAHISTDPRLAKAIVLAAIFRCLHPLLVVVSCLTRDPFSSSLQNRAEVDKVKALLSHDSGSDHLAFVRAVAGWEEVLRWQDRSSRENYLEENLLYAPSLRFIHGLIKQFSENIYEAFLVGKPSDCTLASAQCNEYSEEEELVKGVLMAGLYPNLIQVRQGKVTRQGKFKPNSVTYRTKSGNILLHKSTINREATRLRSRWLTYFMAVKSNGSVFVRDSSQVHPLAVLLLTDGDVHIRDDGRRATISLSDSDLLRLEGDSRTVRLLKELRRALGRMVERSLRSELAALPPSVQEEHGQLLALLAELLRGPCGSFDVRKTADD

Question: `COCCNCc1ccc(-c2cc3nccc(Oc4ccc(NC(=S)NC(=O)Cc5ccc(F)cc5)cc4F)c3s2)nc1` [GLESATINIB] was tested. Which Kd did it give?
Answer: The Kd was > 30 µM (inactive).

Question: Which Kd does the source give for `CC(=O)Nc1cccc(-n2c(=O)n(C3CC3)c(=O)c3c(Nc4ccc(I)cc4F)n(C)c(=O)c(C)c32)c1` [TRAMETINIB] here?
Answer: The Kd was > 30 µM (inactive).

Question: `CC[C@@H]1C(=O)N(C)c2cnc(Nc3ccc(C(=O)N[C@H]4CC[C@H](N5CCN(CC6CC6)CC5)CC4)cc3OC)nc2N1C(C)C` [VOLASERTIB] was tested. Which Kd did it give?
Answer: The Kd was > 30 µM (inactive).

These compounds were tested against G protein-coupled receptor kinase 6 (Homo sapiens, UniProt P43250).
Sequence of G protein-coupled receptor kinase 6 (P43250 whole entry): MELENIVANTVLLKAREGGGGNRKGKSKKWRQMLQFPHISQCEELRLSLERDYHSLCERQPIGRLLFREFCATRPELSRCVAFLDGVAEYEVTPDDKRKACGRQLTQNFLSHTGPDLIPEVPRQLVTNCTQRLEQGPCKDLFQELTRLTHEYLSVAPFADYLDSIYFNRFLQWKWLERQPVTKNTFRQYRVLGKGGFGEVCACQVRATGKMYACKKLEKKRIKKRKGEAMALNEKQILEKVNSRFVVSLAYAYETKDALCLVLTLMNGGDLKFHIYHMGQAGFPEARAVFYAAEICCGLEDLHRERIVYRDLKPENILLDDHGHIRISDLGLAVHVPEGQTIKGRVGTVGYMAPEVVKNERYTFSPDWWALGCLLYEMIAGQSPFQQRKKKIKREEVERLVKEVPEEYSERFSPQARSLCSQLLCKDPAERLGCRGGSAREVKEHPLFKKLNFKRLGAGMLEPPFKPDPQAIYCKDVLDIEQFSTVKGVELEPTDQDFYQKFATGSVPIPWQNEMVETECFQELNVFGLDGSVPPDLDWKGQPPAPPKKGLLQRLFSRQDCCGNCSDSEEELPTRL

Question: For `COCCNCc1ccc(-c2cc3nccc(Oc4ccc(NC(=S)NC(=O)Cc5ccc(F)cc5)cc4F)c3s2)nc1` [GLESATINIB], which Kd is on record?
Answer: Its Kd is > 30 µM (inactive).

Question: Which Kd does the source give for `CC(=O)Nc1cccc(-n2c(=O)n(C3CC3)c(=O)c3c(Nc4ccc(I)cc4F)n(C)c(=O)c(C)c32)c1` [TRAMETINIB] here?
Answer: Its Kd is > 30 µM (inactive).

Question: For `CC[C@@H]1C(=O)N(C)c2cnc(Nc3ccc(C(=O)N[C@H]4CC[C@H](N5CCN(CC6CC6)CC5)CC4)cc3OC)nc2N1C(C)C` [VOLASERTIB], which Kd is on record?
Answer: The Kd was > 30 µM (inactive).

These compounds were tested against Myosin-10 (Homo sapiens, UniProt P35580).
Sequence of Myosin-10 (P35580 whole entry): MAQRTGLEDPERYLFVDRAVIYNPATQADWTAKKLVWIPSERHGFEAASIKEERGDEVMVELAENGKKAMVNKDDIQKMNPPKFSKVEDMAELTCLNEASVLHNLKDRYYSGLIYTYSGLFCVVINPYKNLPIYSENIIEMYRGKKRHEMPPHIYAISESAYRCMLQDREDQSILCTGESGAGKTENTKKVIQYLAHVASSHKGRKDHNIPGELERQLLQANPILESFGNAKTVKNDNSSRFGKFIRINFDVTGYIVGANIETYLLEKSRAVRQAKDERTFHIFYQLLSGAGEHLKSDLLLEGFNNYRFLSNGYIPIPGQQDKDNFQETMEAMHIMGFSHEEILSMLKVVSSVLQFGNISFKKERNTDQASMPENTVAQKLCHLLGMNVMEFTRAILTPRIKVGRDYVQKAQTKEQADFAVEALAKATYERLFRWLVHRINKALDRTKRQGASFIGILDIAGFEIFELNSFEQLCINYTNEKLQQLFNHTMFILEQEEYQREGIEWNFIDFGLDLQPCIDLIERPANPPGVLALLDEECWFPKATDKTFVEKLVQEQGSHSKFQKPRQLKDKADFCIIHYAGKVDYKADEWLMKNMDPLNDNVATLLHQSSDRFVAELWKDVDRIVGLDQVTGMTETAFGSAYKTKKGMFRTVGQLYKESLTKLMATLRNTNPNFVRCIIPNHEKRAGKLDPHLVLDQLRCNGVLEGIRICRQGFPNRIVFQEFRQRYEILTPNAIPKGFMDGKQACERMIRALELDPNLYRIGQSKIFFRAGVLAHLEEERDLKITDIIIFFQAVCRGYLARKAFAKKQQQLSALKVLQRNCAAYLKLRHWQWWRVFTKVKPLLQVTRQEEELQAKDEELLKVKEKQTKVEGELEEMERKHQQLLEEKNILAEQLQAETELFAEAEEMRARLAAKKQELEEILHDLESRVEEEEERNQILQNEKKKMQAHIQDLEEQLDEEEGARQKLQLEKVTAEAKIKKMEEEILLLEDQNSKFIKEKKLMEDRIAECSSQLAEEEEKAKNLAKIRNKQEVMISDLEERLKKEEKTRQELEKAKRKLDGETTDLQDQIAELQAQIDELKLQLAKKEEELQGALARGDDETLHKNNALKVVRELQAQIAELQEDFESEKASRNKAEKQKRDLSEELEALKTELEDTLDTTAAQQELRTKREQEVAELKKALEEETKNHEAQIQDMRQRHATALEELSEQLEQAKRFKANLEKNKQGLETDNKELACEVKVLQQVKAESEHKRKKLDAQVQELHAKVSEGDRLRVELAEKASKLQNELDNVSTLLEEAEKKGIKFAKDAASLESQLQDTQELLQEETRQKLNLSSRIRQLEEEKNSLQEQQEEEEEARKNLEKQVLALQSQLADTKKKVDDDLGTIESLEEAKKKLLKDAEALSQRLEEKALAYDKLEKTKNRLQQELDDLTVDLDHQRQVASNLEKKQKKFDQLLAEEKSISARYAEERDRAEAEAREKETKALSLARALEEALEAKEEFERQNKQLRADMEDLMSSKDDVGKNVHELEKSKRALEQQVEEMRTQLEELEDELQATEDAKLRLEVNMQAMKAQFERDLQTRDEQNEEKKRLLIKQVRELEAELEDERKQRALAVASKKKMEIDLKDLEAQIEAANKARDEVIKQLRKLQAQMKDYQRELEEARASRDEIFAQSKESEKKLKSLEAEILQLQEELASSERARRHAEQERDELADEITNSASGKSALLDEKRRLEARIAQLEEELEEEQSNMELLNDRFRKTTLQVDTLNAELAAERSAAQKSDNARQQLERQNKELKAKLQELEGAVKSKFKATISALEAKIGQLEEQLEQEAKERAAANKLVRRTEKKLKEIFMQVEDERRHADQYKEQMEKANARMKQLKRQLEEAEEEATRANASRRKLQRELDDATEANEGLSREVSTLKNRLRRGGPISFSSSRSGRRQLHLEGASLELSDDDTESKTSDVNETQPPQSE

Question: For `COCCNCc1ccc(-c2cc3nccc(Oc4ccc(NC(=S)NC(=O)Cc5ccc(F)cc5)cc4F)c3s2)nc1` [GLESATINIB], which Kd is on record?
Answer: Its Kd is > 30 µM (inactive).

Question: For `CC(=O)Nc1cccc(-n2c(=O)n(C3CC3)c(=O)c3c(Nc4ccc(I)cc4F)n(C)c(=O)c(C)c32)c1` [TRAMETINIB], which Kd is on record?
Answer: The Kd was > 30 µM (inactive).

Question: With `CC[C@@H]1C(=O)N(C)c2cnc(Nc3ccc(C(=O)N[C@H]4CC[C@H](N5CCN(CC6CC6)CC5)CC4)cc3OC)nc2N1C(C)C` [VOLASERTIB] as the compound, how does the Kd read?
Answer: The Kd was > 30 µM (inactive).

The compounds below were run against T3, Adenine phosphoribosyltransferase (Homo sapiens, UniProt P07741).
T3 sequence (P07741 whole entry): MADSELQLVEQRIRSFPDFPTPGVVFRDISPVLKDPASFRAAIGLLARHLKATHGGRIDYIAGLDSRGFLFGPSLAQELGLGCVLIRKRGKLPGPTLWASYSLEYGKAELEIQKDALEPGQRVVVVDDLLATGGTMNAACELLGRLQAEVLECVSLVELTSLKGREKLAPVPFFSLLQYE

Question: With `COCCNCc1ccc(-c2cc3nccc(Oc4ccc(NC(=S)NC(=O)Cc5ccc(F)cc5)cc4F)c3s2)nc1` [GLESATINIB] as the compound, how does the Kd read?
Answer: The Kd was > 30 µM (inactive).

Question: `CC(=O)Nc1cccc(-n2c(=O)n(C3CC3)c(=O)c3c(Nc4ccc(I)cc4F)n(C)c(=O)c(C)c32)c1` [TRAMETINIB] was tested. Which Kd did it give?
Answer: Its Kd is > 30 µM (inactive).

Question: For `CC[C@@H]1C(=O)N(C)c2cnc(Nc3ccc(C(=O)N[C@H]4CC[C@H](N5CCN(CC6CC6)CC5)CC4)cc3OC)nc2N1C(C)C` [VOLASERTIB], which Kd is on record?
Answer: The Kd was > 30 µM (inactive).

Each compound was assayed against Dual specificity testis-specific protein kinase 2 (Homo sapiens, UniProt Q96S53).
Sequence of Dual specificity testis-specific protein kinase 2 (Q96S53 whole entry): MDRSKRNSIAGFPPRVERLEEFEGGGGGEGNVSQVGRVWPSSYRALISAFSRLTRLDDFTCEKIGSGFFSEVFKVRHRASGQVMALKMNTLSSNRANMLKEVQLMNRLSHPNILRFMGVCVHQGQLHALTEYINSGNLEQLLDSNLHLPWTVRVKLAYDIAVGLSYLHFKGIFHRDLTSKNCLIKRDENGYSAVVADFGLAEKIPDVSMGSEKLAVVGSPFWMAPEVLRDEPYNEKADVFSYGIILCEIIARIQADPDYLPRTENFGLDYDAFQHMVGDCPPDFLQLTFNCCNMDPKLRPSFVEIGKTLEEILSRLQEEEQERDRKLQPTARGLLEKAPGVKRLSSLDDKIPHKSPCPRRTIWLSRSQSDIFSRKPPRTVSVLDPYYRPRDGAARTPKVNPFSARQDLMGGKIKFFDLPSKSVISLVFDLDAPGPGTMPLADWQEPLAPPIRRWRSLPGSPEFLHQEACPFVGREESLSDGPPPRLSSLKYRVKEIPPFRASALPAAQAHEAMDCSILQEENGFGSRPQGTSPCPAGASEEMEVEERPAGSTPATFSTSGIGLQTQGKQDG

Question: For `COCCNCc1ccc(-c2cc3nccc(Oc4ccc(NC(=S)NC(=O)Cc5ccc(F)cc5)cc4F)c3s2)nc1` [GLESATINIB], which Kd is on record?
Answer: Its Kd is > 30 µM (inactive).

Question: `CC(=O)Nc1cccc(-n2c(=O)n(C3CC3)c(=O)c3c(Nc4ccc(I)cc4F)n(C)c(=O)c(C)c32)c1` [TRAMETINIB] was tested. Which Kd did it give?
Answer: Its Kd is > 30 µM (inactive).

Question: With `CC[C@@H]1C(=O)N(C)c2cnc(Nc3ccc(C(=O)N[C@H]4CC[C@H](N5CCN(CC6CC6)CC5)CC4)cc3OC)nc2N1C(C)C` [VOLASERTIB] as the compound, how does the Kd read?
Answer: Its Kd is > 30 µM (inactive).

These compounds were tested against Uncharacterized aarF domain-containing protein kinase 5 (Homo sapiens, UniProt Q3MIX3).
Sequence of Uncharacterized aarF domain-containing protein kinase 5 (Q3MIX3 whole entry, the tested form may be a part): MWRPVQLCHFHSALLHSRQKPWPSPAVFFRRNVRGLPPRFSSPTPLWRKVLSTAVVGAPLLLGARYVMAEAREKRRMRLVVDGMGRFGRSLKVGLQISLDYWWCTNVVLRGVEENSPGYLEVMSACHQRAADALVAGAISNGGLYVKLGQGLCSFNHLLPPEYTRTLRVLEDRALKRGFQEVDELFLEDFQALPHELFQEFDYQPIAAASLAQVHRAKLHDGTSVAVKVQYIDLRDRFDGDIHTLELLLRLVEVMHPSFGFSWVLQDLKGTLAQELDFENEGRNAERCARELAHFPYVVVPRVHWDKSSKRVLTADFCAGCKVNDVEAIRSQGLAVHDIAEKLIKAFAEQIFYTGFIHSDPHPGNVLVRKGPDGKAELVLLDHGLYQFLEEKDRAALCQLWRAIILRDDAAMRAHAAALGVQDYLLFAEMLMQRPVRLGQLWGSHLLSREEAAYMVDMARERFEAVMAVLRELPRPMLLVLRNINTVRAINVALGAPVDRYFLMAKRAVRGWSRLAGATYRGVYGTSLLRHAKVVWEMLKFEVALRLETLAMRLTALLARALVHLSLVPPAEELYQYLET

Question: For `COCCNCc1ccc(-c2cc3nccc(Oc4ccc(NC(=S)NC(=O)Cc5ccc(F)cc5)cc4F)c3s2)nc1` [GLESATINIB], which Kd is on record?
Answer: Its Kd is > 30 µM (inactive).

Question: How did the Kd turn out when `CC(=O)Nc1cccc(-n2c(=O)n(C3CC3)c(=O)c3c(Nc4ccc(I)cc4F)n(C)c(=O)c(C)c32)c1` [TRAMETINIB] was run?
Answer: The Kd was > 30 µM (inactive).

Question: `CC[C@@H]1C(=O)N(C)c2cnc(Nc3ccc(C(=O)N[C@H]4CC[C@H](N5CCN(CC6CC6)CC5)CC4)cc3OC)nc2N1C(C)C` [VOLASERTIB] was tested. Which Kd did it give?
Answer: Its Kd is > 30 µM (inactive).

The compounds below were run against PAS domain-containing serine/threonine-protein kinase (Homo sapiens, UniProt Q96RG2).
Sequence of PAS domain-containing serine/threonine-protein kinase (Q96RG2 whole entry, the tested form may be a part): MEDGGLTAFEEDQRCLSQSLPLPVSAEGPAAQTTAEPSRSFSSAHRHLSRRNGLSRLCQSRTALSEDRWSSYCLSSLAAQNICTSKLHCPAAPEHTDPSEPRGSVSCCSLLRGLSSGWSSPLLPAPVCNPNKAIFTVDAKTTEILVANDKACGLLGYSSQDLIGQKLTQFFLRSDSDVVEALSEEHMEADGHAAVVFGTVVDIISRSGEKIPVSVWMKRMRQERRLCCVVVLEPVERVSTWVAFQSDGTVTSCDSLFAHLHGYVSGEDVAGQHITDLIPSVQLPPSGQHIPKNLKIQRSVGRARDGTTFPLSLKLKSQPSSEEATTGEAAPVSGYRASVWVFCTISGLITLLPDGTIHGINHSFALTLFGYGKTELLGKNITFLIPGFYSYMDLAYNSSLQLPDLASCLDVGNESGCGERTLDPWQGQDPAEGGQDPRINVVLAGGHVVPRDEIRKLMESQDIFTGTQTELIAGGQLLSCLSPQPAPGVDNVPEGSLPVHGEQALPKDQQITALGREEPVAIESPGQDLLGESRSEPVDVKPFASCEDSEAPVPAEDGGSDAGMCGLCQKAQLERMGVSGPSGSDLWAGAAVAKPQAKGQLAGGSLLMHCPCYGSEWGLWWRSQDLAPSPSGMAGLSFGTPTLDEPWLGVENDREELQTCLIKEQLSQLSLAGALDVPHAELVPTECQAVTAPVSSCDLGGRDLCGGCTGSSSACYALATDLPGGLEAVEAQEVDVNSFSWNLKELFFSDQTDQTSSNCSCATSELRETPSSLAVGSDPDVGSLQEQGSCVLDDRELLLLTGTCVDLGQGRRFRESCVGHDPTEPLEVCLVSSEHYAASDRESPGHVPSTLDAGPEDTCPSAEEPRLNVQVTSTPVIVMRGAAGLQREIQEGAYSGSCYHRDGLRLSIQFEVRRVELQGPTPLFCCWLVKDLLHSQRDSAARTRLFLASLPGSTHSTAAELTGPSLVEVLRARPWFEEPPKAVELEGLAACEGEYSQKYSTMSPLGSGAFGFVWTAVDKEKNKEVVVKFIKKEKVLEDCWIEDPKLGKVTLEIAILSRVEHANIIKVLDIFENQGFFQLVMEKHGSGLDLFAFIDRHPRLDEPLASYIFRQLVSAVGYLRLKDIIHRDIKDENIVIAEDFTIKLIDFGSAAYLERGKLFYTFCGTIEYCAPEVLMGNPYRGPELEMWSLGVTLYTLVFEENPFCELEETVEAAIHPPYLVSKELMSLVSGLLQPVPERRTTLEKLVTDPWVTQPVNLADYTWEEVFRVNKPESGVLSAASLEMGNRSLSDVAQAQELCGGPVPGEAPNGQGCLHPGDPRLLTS

Question: Which Kd does the source give for `COCCNCc1ccc(-c2cc3nccc(Oc4ccc(NC(=S)NC(=O)Cc5ccc(F)cc5)cc4F)c3s2)nc1` [GLESATINIB] here?
Answer: The Kd was > 30 µM (inactive).

Question: For `CC(=O)Nc1cccc(-n2c(=O)n(C3CC3)c(=O)c3c(Nc4ccc(I)cc4F)n(C)c(=O)c(C)c32)c1` [TRAMETINIB], which Kd is on record?
Answer: The Kd was > 30 µM (inactive).

Question: How did the Kd turn out when `CC[C@@H]1C(=O)N(C)c2cnc(Nc3ccc(C(=O)N[C@H]4CC[C@H](N5CCN(CC6CC6)CC5)CC4)cc3OC)nc2N1C(C)C` [VOLASERTIB] was run?
Answer: Its Kd is > 30 µM (inactive).
